From patent US11566007B2, “Ras inhibitors” (Revolution Medicines, Inc., priority 2019, dated 2023)

What was measured:
[1] = tested on: NCI-H358 cells (K-Ras G12C); assay: Potency assay: pERK in NCI-H358 cells; assay type: cell-based, human; conditions: Homo sapiens, NCI-H358; H358 KRAS G12C; read-out: pERK EC50
Outline: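 4 h cpd, 37 °C; 10-pt 3-fold series, 10 mM DMSO top stock, duplicates. Readout pERK: AlphaLISA SureFire Ultra or In-Cell Western (IR-800CW secondary, DRAQ5 DNA stain). IC50, 4-PL fit vs log conc.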

[2] = target: K-Ras G13C (Homo sapiens (Human), UniProt P01116+P62937, G13C); assay: Ras-Raf (BRAF RBD) disruption / FRET / MOA assay, KRAS G13C; assay type: biochemical; conditions: KRAS G13C; Ras-Raf disruption/FRET/MOA assay; read-out: IC50* KRAS G13C FRET data
Outline: (§1)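 Ras:RAF disruption was scored as a fall in TR-FRET ratio relative to DMSO. Compound ranged in 3-fold steps over 10 points from 30 μM final; incubation ran 3 h at 25° C, detection antibodies a further 1.5 h. Reported as IC50.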

[3] = target: KRAS G12S (Homo sapiens (Human), UniProt P01116+P62937, G12S); assay: Ras-Raf (BRAF RBD) disruption / FRET / MOA assay, KRAS G12S; assay type: biochemical; conditions: Ras-Raf disruption/FRET/MOA assay; class symbols; read-out: KRAS G12S FRET data IC50
Outline: as §1

[4] = target: NRAS Q61R (Homo sapiens (Human), UniProt P01111+P62937, Q61R); assay: Ras-Raf (BRAF RBD) disruption / FRET / MOA assay, NRAS Q61R; assay type: biochemical; conditions: NRAS Q61R; Ras-Raf disruption/FRET/MOA assay; read-out: IC50* NRAS Q61R FRET data
Outline: (§2)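 TR-FRET disruption of nucleotide-loaded Ras binding to BRAF RBD via compound-driven ternary complex with cyclophilin A. Compound as 10-point 3-fold series from 30 μM final, 3 h at 25° C, then anti-His Eu-W1024 (10 nM) and anti-GST allophycocyanin (50 nM) for 1.5 h. IC50 from decreased FRET ratio versus DMSO.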

[5] = target: NRAS Q61K (Homo sapiens (Human), UniProt P01111+P62937, Q61K); assay: Ras-Raf (BRAF RBD) disruption / FRET / MOA assay, NRAS Q61K; assay type: biochemical; conditions: NRAS Q61K; Ras-Raf disruption/FRET/MOA assay; read-out: IC50* NRAS Q61K FRET data
Outline: as §2

[6] = target: NRAS WT (Homo sapiens (Human), UniProt P01111+P62937); assay: Ras-Raf (BRAF RBD) disruption / FRET / MOA assay, NRAS WT; assay type: biochemical; conditions: read-out: IC50* NRAS WT FRET data
Outline: as §2

Sequence of KRAS G12S (P01116-2 other isoform, or with tags, fused parts or gaps G12S): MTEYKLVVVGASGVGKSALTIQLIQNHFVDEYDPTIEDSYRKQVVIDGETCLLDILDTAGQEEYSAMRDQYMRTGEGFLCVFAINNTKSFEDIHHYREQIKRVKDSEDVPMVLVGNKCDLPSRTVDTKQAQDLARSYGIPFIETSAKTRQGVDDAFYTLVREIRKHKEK
Sequence of KRAS G12S (P62937 whole entry): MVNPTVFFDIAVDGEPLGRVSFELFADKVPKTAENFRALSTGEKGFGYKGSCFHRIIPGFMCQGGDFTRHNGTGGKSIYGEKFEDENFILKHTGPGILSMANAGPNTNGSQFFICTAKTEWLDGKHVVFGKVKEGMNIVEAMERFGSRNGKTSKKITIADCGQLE
Sequence of NRAS WT (P01111 whole entry): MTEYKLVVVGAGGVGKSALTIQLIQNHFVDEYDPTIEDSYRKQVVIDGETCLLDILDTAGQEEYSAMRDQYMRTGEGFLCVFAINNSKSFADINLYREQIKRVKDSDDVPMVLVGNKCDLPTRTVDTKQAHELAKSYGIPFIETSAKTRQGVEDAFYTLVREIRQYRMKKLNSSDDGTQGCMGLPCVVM
Sequence of NRAS WT (P62937 whole entry): as the sequence (P62937 whole entry) above
Sequence of K-Ras G13C (P01116-2 other isoform, or with tags, fused parts or gaps G13C): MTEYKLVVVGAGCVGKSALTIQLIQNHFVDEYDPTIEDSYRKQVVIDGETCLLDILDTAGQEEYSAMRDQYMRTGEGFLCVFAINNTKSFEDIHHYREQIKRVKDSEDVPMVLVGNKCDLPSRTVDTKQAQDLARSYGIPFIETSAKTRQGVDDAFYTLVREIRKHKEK
Sequence of K-Ras G13C (P62937 whole entry): as the sequence (P62937 whole entry) above
Sequence of NRAS Q61K (P01111 whole entry Q61K): as the sequence (P01111 whole entry) above, with Q61K counted along it
Sequence of NRAS Q61K (P62937 whole entry): as the sequence (P62937 whole entry) above
Sequence of NRAS Q61R (P01111 whole entry Q61R): as the sequence (P01111 whole entry) above, with Q61R counted along it
Sequence of NRAS Q61R (P62937 whole entry): as the sequence (P62937 whole entry) above

Row | Structure (SMILES) | EC50 [1] | IC50 [2] | IC50 [3] | IC50 [4] | IC50 [5] | IC50 [6]
1 | C=CC(=O)N1CCO[C@H]2CN(C(=O)N(C)[C@H](C(=O)N[C@H]3CC4=NN=C(O4)c4ccc5c(c4)c(c(-c4cccnc4[C@H](C)OC)n5CC(F)(F)F)CC(C)(C)COC(=O)[C@@H]4CCCN(N4)C3=O)C(C)C)C[C@H]21 (atropisomer, axis not shown) [Example A576] | < 5000 nM | 100 to 1000 nM | > 10000 nM | > 10000 nM | 1000 to 10000 nM | 1000 to 10000 nM
2 | CO[C@@H](C)c1ncccc1-c1c2c3cc(ccc3n1CC(F)(F)F)-c1nc(co1)C[C@H](NC(=O)[C@H](C(C)C)N(C)C(=O)C1(F)CCN(C(=O)C#CC(C)(C)N(C)C)CC1)C(=O)N1CCC[C@H](N1)C(=O)OCC(C)(C)C2 (atropisomer, axis not shown) [Example A578] | < 5000 nM | 10 to 100 nM | 100 to 1000 nM | 100 to 1000 nM | 100 to 1000 nM | 100 to 1000 nM
3 | CCn1c(-c2cccnc2[C@H](C)OC)c2c3cc(ccc31)-c1cccc(c1)C[C@H](NC(=O)[C@@H](CO[C@H]1CCN(C(=O)C#CC(C)(C)N(C)C)C1)C(C)C)C(=O)N1CCC[C@H](N1)C(=O)OCC(C)(C)C2 (atropisomer, axis not shown) [Example A585] | < 5000 nM | 1000 to 10000 nM | 1000 to 10000 nM | > 10000 nM | > 10000 nM | 1000 to 10000 nM
4 | CCn1c(-c2cccnc2[C@H](C)OC)c2c3cc(ccc31)C1=CCCN(C1)C[C@H](NC(=O)[C@H](C(C)C)N(C)C(=O)C1(F)CCN(C(=O)C#CC(C)(C)N(C)C)CC1)C(=O)N1CCC[C@H](N1)C(=O)OCC(C)(C)C2 (atropisomer, axis not shown) [Example A591] | < 5000 nM | 10 to 100 nM | 100 to 1000 nM | 100 to 1000 nM | 1000 to 10000 nM | 100 to 1000 nM
5 | CCn1c(-c2cccnc2[C@H](C)OC)c2c3cc(ccc31)-c1cccc(c1)C[C@H](NC(=O)[C@@H](COC1CN(C(=O)C#CC(C)(C)N(C)C(C)C)C1)C(C)C)C(=O)N1CCC[C@H](N1)C(=O)OCC(C)(C)C2 (atropisomer, axis not shown) [Example A599] | < 5000 nM | 1000 to 10000 nM | > 10000 nM | > 10000 nM | > 10000 nM | > 10000 nM
6 | CO[C@@H](C)c1ncccc1-c1c2c3cc(ccc3n1CC(F)(F)F)-c1cccc(c1)CN(NC(=O)[C@@H](COC1CN(C(=O)C#CC(C)(C)N(C)C)C1)C(C)C)C(=O)N1CCC[C@H](N1)C(=O)OCC(C)(C)C2 (atropisomer, axis not shown) [Example A601] | < 5000 nM | 100 to 1000 nM | 1000 to 10000 nM | 1000 to 10000 nM | 1000 to 10000 nM | 1000 to 10000 nM
7 | CO[C@@H](C)c1ncccc1-c1c2c3cc(ccc3n1CC(F)(F)F)-c1csc(n1)C[C@H](NC(=O)[C@H](C(C)C)N(C)C(=O)N1CCC3(CC1)CN(C(=O)/C=C/CF)C3)C(=O)N1CCC[C@H](N1)C(=O)OCC(C)(C)C2 (atropisomer, axis not shown) [Example A602] | < 5000 nM | 10 to 100 nM | 10 to 100 nM | 10 to 100 nM | 10 to 100 nM | 10 to 100 nM
8 | C=CC(=O)N1CCOC2(CCN(C(=O)N(C)[C@H](C(=O)N[C@H]3Cc4nc(n(C)n4)-c4ccc5c(c4)c(c(-c4cccnc4[C@H](C)OC)n5CC(F)(F)F)CC(C)(C)COC(=O)[C@@H]4CCCN(N4)C3=O)C(C)C)CC2)C1 (atropisomer, axis not shown) [Example A606] | < 5000 nM | 10 to 100 nM | 100 to 1000 nM | 100 to 1000 nM | 100 to 1000 nM | 100 to 1000 nM
9 | C=CC(=O)N1CC2(C1)OCCN2C(=O)N(C)[C@H](C(=O)N[C@H]1Cc2nc(cs2)-c2ccc3c(c2)c(c(-c2cccnc2[C@H](C)OC)n3CC)CC(C)(C)COC(=O)[C@@H]2CCCN(N2)C1=O)C(C)C (atropisomer, axis not shown) [Example A620] | < 5000 nM | 100 to 1000 nM | 100 to 1000 nM | 100 to 1000 nM | 10 to 100 nM | 100 to 1000 nM
10 | CCn1c(-c2cccnc2[C@H](C)OC)c2c3cc(ccc31)-c1cccc(n1)C[C@H](NC(=O)[C@H](C(C)C)N(C)C(=O)N1CCC13CN(C(=O)C#CC(C)(C)N(C)C)C3)C(=O)N1CCC[C@H](N1)C(=O)OCC(C)(C)C2 (atropisomer, axis not shown) [Example A623] | < 5000 nM | 1000 to 10000 nM | 1000 to 10000 nM | 1000 to 10000 nM | 100 to 1000 nM | 1000 to 10000 nM
11 | CCn1c(-c2cccnc2[C@H](C)OC)c2c3cc(ccc31)-c1csc(n1)C[C@H](NC(=O)C[C@H](C)OC1CN(C(=O)C#CC(C)(C)N(C)C)C1)C(=O)N1CCC[C@H](N1)C(=O)OCC(C)(C)C2 (atropisomer, axis not shown) [Example A637] | < 5000 nM | 1000 to 10000 nM | 1000 to 10000 nM | > 10000 nM | 1000 to 10000 nM | 1000 to 10000 nM
12 | CO[C@@H](C)c1ncccc1-c1c2c3cc(ccc3n1CC(F)(F)F)N1CCO[C@@H](C[C@H](NC(=O)[C@H](C(C)C)N3CC[C@]4(CCN(C(=O)C#CC(C)(C)N(C)C)C4)C3=O)C(=O)N3CCC[C@H](N3)C(=O)OCC(C)(C)C2)C1 (atropisomer, axis not shown) [Example A642] | < 5000 nM | 100 to 1000 nM | 1000 to 10000 nM | > 10000 nM | > 10000 nM | 1000 to 10000 nM
13 | CCn1c(-c2cccnc2[C@H](C)OC)c2c3cc(ccc31)N1CCO[C@@H](C[C@H](NC(=O)[C@H](C(C)C)N(C)C(=O)C3(F)CCN(C(=O)C#CC(C)(C)N(C)C)CC3)C(=O)N3CCC[C@H](N3)C(=O)OCC(C)(C)C2)C1 (atropisomer, axis not shown) [Example A647, 1-(4-(dimethylamino)-4-methylpent-2-ynoyl)-N-((2S)-1-(((2^2S,6^3S,4S)-1^1-ethyl-1^2-(2-((S)-1-methoxyethyl)pyridin-3-yl)-10,10-dimethyl-5,7-dioxo-6^1,6^2,6^3,6^4,6^5,6^6-hexahydro-1^1H-8-oxa-2(4,2)-morpholina-1(5,3)-indola-6(1,3)-pyridazinacycloundecaphane-4-yl)amino)-3-methyl-1-oxobutan-2-yl)-4-fluoro-N-methylpiperidine-4-carboxamide] | < 5000 nM | 100 to 1000 nM | 1000 to 10000 nM | 1000 to 10000 nM | 1000 to 10000 nM | 100 to 1000 nM
14 | C=CC(=O)N1CC[C@]2(C1)OCN([C@H](C(=O)N[C@H]1Cc3cccc(n3)-c3ccc4c(c3)c(c(-c3cccnc3[C@H](C)OC)n4CC)CC(C)(C)COC(=O)[C@@H]3CCCN(N3)C1=O)C(C)C)C2=O (atropisomer, axis not shown) [Example A652] | < 5000 nM | 100 to 1000 nM | 1000 to 10000 nM | 1000 to 10000 nM | 1000 to 10000 nM | 1000 to 10000 nM
15 | CCn1c(-c2cccnc2[C@H](C)OC)c2c3cc(ccc31)-c1cc(CF)cc(c1)C[C@H](NC(=O)[C@H](C(C)C)N(C)C(=O)[C@H]1CCN(C(=O)C#CC(C)(C)N(C)C)C1)C(=O)N1CCC[C@H](N1)C(=O)OCC(C)(C)C2 (atropisomer, axis not shown) [Example A658] | < 5000 nM | 100 to 1000 nM | 1000 to 10000 nM | 1000 to 10000 nM | > 10000 nM | 1000 to 10000 nM
16 | C=CC(=O)N1CC2(CCCN2C(=O)N(C)[C@H](C(=O)N[C@H]2Cc3nc(cs3)-c3ccc4c(c3)c(c(-c3cccnc3[C@H](C)OC)n4CC)CC(C)(C)COC(=O)[C@@H]3CCCN(N3)C2=O)C(C)C)C1 (atropisomer, axis not shown) [Example A667] | < 5000 nM | 100 to 1000 nM | 100 to 1000 nM | 10 to 100 nM | 10 to 100 nM | 10 to 100 nM
17 | CCn1c(-c2cccnc2[C@H](C)OC)c2c3cc(ccc31)-c1cc(CF)cc(c1)C[C@H](NC(=O)[C@H](C(C)C)N1CC[C@]3(CCN(C(=O)C#CC(C)(C)N(C)C)C3)C1=O)C(=O)N1CCC[C@H](N1)C(=O)OCC(C)(C)C2 (atropisomer, axis not shown) [Example A673] | < 5000 nM | 100 to 1000 nM | 1000 to 10000 nM | 1000 to 10000 nM | 1000 to 10000 nM | 1000 to 10000 nM
18 | CCn1c(-c2cccnc2[C@H](C)OC)c2c3cc(ccc31)-c1cccc(c1)C[C@H](NC(=O)[C@H](C(C)C)N(C)C(=O)C1(F)CCN(C(=O)/C=C/CN(C)C)CC1)C(=O)N1CCC[C@H](N1)C(=O)OCC(C)(C)C2 (atropisomer, axis not shown) [Example A685] | < 5000 nM | 100 to 1000 nM | 100 to 1000 nM | 100 to 1000 nM | 100 to 1000 nM | 100 to 1000 nM
